Measurements as given in US20020183937A1, “Method for the generation of proteins with new enzymatic function” (priority 2001, published 2002).
Values belong to the molecule of their own block, whether it stands above or below them.

Experiments:
[1] = Steady state kinetics of PNPA hydrolysis by protozymes; format: biochemical; conditions: qualitative statement
[2] = Burst phase PNPA hydrolysis assay at high substrate concentration; conditions: 1.6 mM PNPA, 4 μM protein (FIG. 7)
Procedure: PZD2 was dialyzed extensively against 10 mM sodium phosphate buffer at pH 6.95. Kinetic experiments at 22° C. were started by the addition of substrate dissolved in acetonitrile to buffer solution with and without PZD2 (final protein concentration of 4 μM). Protein concentration was determined by UV absorbance in 6M guanidinium hydrochloride assuming an extinction coefficient of 12400 M^−1cm^−1 at 280 nm. Product concentration was determined by the change in absorbance at 400.5 nm assuming an extinction coefficient for deprotonated PNP of 19700 M^31 1cm^−1. Final acetronitrile concentration was 1% for all experiments. The steady state rate of hydrolysis by PZD2 was corrected for the buffer rate. Burst phase hydrolysis assays were performed at a substrate concentration of 1.6 mM. Protein concentration was 4 μM, with the exception of wild type thioredoxin. Wild type thioredoxin was assayed at 50 μM to improve signal to noise and extrapolated to a protein concentration of 4 μM. The dead time for this experiment was approximately 30 seconds.

PZD2 = molecular target: T1, PZD2 (Escherichia coli, UniProt P0AA25, D27I/F13A/L18H/Y71A); assay: Inhibition of PZD2 catalyzed PNPA hydrolysis; format: biochemical, E. coli
T1 construct: made in house; host or cells: E. coli BL21 (DE3), vector pET-11a
Text: With this in mind, we assayed the inhibitory effects of p-nitrophenol glycerol (PNPG), a highly soluble compound with structural similarity to PNPA.

T1 sequence (P0AA25 2-109 F13A/L18H/D27I/Y71A): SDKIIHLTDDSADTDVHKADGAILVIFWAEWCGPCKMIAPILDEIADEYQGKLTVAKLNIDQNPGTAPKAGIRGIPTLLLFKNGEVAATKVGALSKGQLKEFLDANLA

enzyme-like activity toward PNPA hydrolysis [1]: essentially catalytically inert | enzyme-like activity toward PNPA hydrolysis ([1]; listed as wild type protein): does not exhibit enzyme-like activity
Molecule: Wild type thioredoxin: thioredoxin protein from E. coli, scaffold; wild type sequence, H at position 6 with no binding site mutations
catalytic activity (PNPA hydrolysis) [2]: essentially inactive

Molecule: p-nitrophenol glycerol [PNPG]
Ki (PZD2; fixed substrate concentration, read-out: K1 (Dixon analysis of inhibition)): 20 mM | mode of inhibition (double reciprocal analysis) (PZD2; presence and absence of inhibitor, 10 mM PNPG (FIG. 9)): competitive inhibition

Molecule: O=[N+]([O-])c1ccc(OP(=O)(O)O)cc1 [p-nitrophenyl phosphate]
inhibition (PZD2; concentrations up to 20 mM): did not show detectable inhibition
